This note sets out measurements from patent EP4800015A1, “AZABICYCLO DERIVATIVE AND PREPARATION METHOD THEREFOR, AND USE” (Zhejiang Hisun Pharmaceutical Co., Ltd., priority 2023, dated 2025).

T1 sequence (Q14191 whole entry): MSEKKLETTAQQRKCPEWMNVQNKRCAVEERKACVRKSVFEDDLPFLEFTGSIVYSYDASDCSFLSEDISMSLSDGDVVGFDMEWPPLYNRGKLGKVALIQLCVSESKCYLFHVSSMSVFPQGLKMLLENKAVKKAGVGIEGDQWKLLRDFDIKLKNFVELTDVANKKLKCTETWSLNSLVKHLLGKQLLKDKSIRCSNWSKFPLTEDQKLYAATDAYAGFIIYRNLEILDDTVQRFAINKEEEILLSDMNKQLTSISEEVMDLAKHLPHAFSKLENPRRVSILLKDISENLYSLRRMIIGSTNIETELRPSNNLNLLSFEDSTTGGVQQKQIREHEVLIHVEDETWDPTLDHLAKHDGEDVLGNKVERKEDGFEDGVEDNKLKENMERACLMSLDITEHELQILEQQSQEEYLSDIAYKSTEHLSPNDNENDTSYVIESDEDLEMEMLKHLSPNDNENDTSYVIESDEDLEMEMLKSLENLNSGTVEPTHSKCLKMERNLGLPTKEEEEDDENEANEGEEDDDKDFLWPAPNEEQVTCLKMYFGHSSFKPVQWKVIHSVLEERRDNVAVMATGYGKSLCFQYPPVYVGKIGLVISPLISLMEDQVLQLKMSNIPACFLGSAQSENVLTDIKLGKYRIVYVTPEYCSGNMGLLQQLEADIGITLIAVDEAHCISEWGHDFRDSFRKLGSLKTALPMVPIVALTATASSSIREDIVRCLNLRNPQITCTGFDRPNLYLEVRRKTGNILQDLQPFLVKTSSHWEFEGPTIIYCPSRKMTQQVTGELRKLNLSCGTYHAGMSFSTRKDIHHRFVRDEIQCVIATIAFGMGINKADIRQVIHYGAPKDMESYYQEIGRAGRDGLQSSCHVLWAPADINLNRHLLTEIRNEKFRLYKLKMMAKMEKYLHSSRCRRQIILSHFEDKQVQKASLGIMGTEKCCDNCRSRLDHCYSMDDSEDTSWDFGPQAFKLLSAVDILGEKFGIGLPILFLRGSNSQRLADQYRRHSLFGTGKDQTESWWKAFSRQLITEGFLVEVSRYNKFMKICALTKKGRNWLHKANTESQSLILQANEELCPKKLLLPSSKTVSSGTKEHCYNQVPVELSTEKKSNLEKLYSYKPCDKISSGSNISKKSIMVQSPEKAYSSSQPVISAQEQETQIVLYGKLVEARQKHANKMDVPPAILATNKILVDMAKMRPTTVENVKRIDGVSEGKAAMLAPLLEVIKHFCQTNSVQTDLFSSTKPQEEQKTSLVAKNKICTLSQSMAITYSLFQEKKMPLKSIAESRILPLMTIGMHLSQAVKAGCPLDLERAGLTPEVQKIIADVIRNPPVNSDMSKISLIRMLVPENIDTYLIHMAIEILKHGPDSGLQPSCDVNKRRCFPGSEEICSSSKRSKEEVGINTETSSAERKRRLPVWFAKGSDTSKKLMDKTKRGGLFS

One test addresses T1, recombinant human WRN (Homo sapiens, UniProt Q14191).
T1 construct: purchased BPS 101264
Kind of test: Inhibition of WRN enzyme activity (ATPase), ADP-Glo Kinase Assay. The format is biochemical. The following applies: WRN protein 5 nM, Flap 0.1 nM, ATP 30 µM. Summed up: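 ATPase activity was measured by ADP-Glo luminescence after a 10-min room-temperature reaction with 30 µM ATP and 0.1 nM Flap26 oligonucleotide substrate. The 5 nM WRN had first been exposed to compound (0.004–1000 nM) for 15 min in pH 7.5 Tris buffer with 2 mM MgCl2. IC50 values came from log-concentration regression against the DMSO control.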
As for `CCc1c(N2CCN(C(=O)c3ncnc(C)c3O)CC2)c(=O)n2nc(-c3ccc4nc[nH]c4c3)nc2n1CC(=O)Nc1ccc(C(F)(F)F)cc1Cl` [Example 138, 2-(2-(1H-benzo[d]imidazol-6-yl)-5-ethyl-6-(4-(5-hydroxy-6-methylpyrimidine-4-carbonyl)piperazin-1-yl)-7-oxo-[1,2,4]triazolo[1,5-a]pyrimidin-4(7H)-yl)-N-(2-chloro-4-(trifluoromethyl)phenyl) acetamide], the 50% inhibitory concentration (IC50) is 1 to 100 nM.
On the same count and under the same terms, the value for `CCc1c(N2CCN(C(=O)c3ncnc(C)c3O)CC2)c(=O)n2nc(-c3ccc4cnn(C)c4c3)nc2n1CC(=O)Nc1ccc(C(F)(F)F)cc1Cl` [Example 139, N-(2-chloro-4-(trifluoromethyl)phenyl)-2-(5-ethyl-6-(4-(5-hydroxy-6-methylpyrimidine-4-carbonyl)piperazin-1-yl)-2-(1-methyl-1H-indazol-6-yl)-7-oxo-[1,2,4]triazolo[1,5-a]pyrimidin-4(7H)-yl) acetamide] was 1 to 100 nM.

The same test, now with this note: WRN protein 5 nM, Flap 0.1 nM, ATP 30 µM; read-out: IC50.
As for `CCc1c(N2CCN(C(=O)c3ncnc(C)c3O)CC2)c(=O)n2nc(-c3ccc4ncnn4c3)nc2n1CC(=O)Nc1ccc(C(F)(F)F)cc1Cl` [Example 135, 2-(2-([1,2,4]triazolo[1,5-a]pyridin-6-yl)-5-ethyl-6-(4-(5-hydroxy-6-methylpyrimidine-4-carbonyl)piperazin-1-yl)-7-oxo-[1,2,4]triazolo[1,5-a]pyrimidin-4(7H)-yl)-N-(2-chloro-4-(trifluoromethyl)phenyl)acetamide], the IC50 was in the range of 1 to 100 nM.
Take `CCc1c(N2CCN(C(=O)c3ncnc(C)c3O)CC2)c(=O)n2nc(-c3ccn4ccnc4c3)nc2n1CC(=O)Nc1ccc(C(F)(F)F)cc1Cl` [Example 136, N-(2-chloro-4-(trifluoromethyl)phenyl)-2-(5-ethyl-6-(4-(5-hydroxy-6-methylpyrimidine-4-carbonyl)piperazin-1-yl)-2-(imidazo[1,2-a]pyridin-7-yl)-7-oxo-[1,2,4]triazolo[1,5-a]pyrimidin-4(7H)-yl)acetamide]: the IC50 is 1 to 100 nM.
As for `CCc1c(N2CCN(C(=O)c3ncnc(C)c3O)CC2)c(=O)n2nc(-c3ccn4ncnc4c3)nc2n1CC(=O)Nc1ccc(C(F)(F)F)cc1Cl` [Example 137, 2-(2-([1,2,4]triazolo[1,5-a]pyridin-7-yl)-5-ethyl-6-(4-(5-hydroxy-6-methylpyrimidine-4-carbonyl)piperazin-1-yl)-7-oxo-[1,2,4]triazolo[1,5-a]pyrimidin-4(7H)-yl)-N-(2-chloro-4-(trifluoromethyl)phenyl)acetamide], the IC50 was 1 to 100 nM.
The same measure, in the same setting: the value for `CCc1c(N2CCN(C(=O)c3ncnc(C)c3O)CC2)c(=O)n2nc(-c3ccc4c(c3)CC(=O)N4)nc2n1CC(=O)Nc1ccc(C(F)(F)F)cc1Cl` [Example 141, N-(2-chloro-4-(trifluoromethyl)phenyl)-2-(5-ethyl-6-(4-(5-hydroxy-6-methylpyrimidine-4-carbonyl)piperazin-1-yl)-7-oxo-2-(2-oxoindolin-5-yl)-[1,2,4]triazolo[1,5-a]pyrimidin-4(7H)-yl)acetamide] was 1 to 100 nM; that for `CCc1c(N2CCN(C(=O)c3ncnc(C)c3O)CC2)c(=O)n2nc(C3=CC4(CCNCC4)C3)nc2n1CC(=O)Nc1ccc(C(F)(F)F)cc1Cl` [Example 143, N-(2-chloro-4-(trifluoromethyl)phenyl)-2-(5-ethyl-6-(4-(5-hydroxy-6-methylpyrimidine-4-carbonyl)piperazin-1-yl)-7-oxo-2-(7-azaspiro[3.5]non-1-en-2-yl)-[1,2,4]triazolo[1,5-a]pyrimidin-4(7H)-yl)acetamide] was 1 to 100 nM.
The same measure, in the same setting: the value for `CCc1c(N2CCN(C(=O)c3ncnc(C)c3O)CC2)c(=O)n2nc(C3=CC4CN(C)CC4C3)nc2n1CC(=O)Nc1ccc(C(F)(F)F)cc1Cl` (stereo not shown) [Example 144, N-(2-chloro-4-(trifluoromethyl)phenyl)-2-(5-ethyl-6-(4-(5-hydroxy-6-methylpyrimidine-4-carbonyl)piperazin-1-yl)-2-(2-methyl-1,2,3,3a,4,6a-hexahydrocyclopenta[c]pyrrol-5-yl)-7-oxo-[1,2,4]triazolo[1,5-a]pyrimidin-4(7H)-yl)acetamide] was 1 to 100 nM; that for `CCc1c(N2CCN(C(=O)c3ncnc(C)c3O)CC2)c(=O)n2nc(C3=CC4CN(C(C)=O)CC4C3)nc2n1CC(=O)Nc1ccc(C(F)(F)F)cc1Cl` (stereo not shown) [Example 145, 2-(2-(2-Acetyl-1,2,3,3a,4,6a-hexahydrocyclopenta[c]pyrrol-5-yl)-5-ethyl-6-(4-(5-hydroxy-6-methylpyrimidine-4-carbonyl)piperazin-1-yl)-7-oxo-[1,2,4]triazolo[1,5-a]pyrimidin-4(7H)-yl)-N-(2-chloro-4-(trifluoromethyl)phenyl)acetamide] was 1 to 100 nM; that for `CCc1c(N2CCN(C(=O)c3ncnc(C)c3O)CC2)c(=O)n2nc(C3=CC4CNCC4C3)nc2n1CC(=O)Nc1ccc(S(F)(F)(F)(F)F)cc1` (stereo not shown) [Example 146, 2-(5-Ethyl-2-(1,2,3,3a,4,6a-hexahydrocyclopenta[c]pyrrol-5-yl)-6-(4-(5-hydroxy-6-methylpyrimidine-4-carbonyl)piperazin-1-yl)-7-oxo-[1,2,4]triazolo[1,5-a]pyrimidin-4(7H)-yl)-N-(4-(pentafluoro-λ^6-sulfaneyl)phenyl)acetamide] was 1 to 100 nM.
With `CCc1c(N2CCN(C(=O)c3ncnc(C)c3O)CC2)c(=O)n2nc(-c3ccc4c(c3)CCO4)nc2n1CC(=O)Nc1ccc(SC(F)F)cc1Cl` [Example 148, N-(2-chloro-4-((difluoromethyl)thio)phenyl)-2-(2-(2,3-dihydrobenzofuran-5-yl)-5-ethyl-6-(4-(5-hydroxy-6-methylpyrimidine-4-carbonyl)piperazin-1-yl)-7-oxo-[1,2,4]triazolo[1,5-a]pyrimidin-4(7 H)-yl)acetamide], the IC50 is 1 to 100 nM.
On the same count and under the same terms, the value for `CCc1c(N2CCN(C(=O)c3ncncc3O)CC2)c(=O)n2nc(C3=CC4COCC4C3)nc2n1CC(=O)Nc1ccc(C(F)(F)F)cc1Cl` (stereo not shown) [Example 160, N-(2-chloro-4-(trifluoromethyl)phenyl)-2-(5-ethyl-6-(4-(5-hydroxypyrimidine-4-carbonyl)piperazin-1-yl)-7-oxo-2-(3,3a,4,6a-tetrahydro-1H-cyclopenta[c]furan-5-yl)-[1,2,4]triazolo[1,5-a]pyrimidin-4(7H)-yl)acetamide] was 1 to 100 nM.
Still for that read-out and setting: the value for `CCc1c(N2CCN(C(=O)c3ncnc(C)c3O)CC2)c(=O)n2nc(C3=CCCCOC3)nc2n1CC(=O)Nc1ccc(SC(F)(F)F)cc1Cl` [Example 165, N-(2-chloro-4-((trifluoromethyl)thio)phenyl)-2-(5-ethyl-6-(4-(5-hydroxy-6-methylpyrimidine-4-carbonyl)piperazin-1-yl)-7-oxo-2-(2,5,6,7-tetrahydrooxepin-3-yl)-[1,2,4]triazolo[1,5-a]pyrimidin-4(7H)-yl)acetamide] was 1 to 100 nM.
Take `[2H]C([2H])([2H])Sc1ccc(NC(=O)Cn2c(CC)c(N3CCN(C(=O)c4ncnc(C)c4O)CC3)c(=O)n3nc(C4=CCCCOC4)nc23)c(Cl)c1` [Example 166, N-(2-chloro-4-((methyl-d3)thio)phenyl)-2-(5-ethyl-6-(4-(5-hydroxy-6-methylpyrimidine-4-carbonyl)piperazin-1-yl)-7-oxo-2-(2,5,6,7-tetrahydrooxepin-3-yl)-[1,2,4]triazolo[1,5-a]pyrimidin-4(7H )-yl)acetamide]: the IC50 lay within 1 to 100 nM.
For `CCc1c(N2CCN(C(=O)c3ncnc(C)c3O)CC2)c(=O)n2nc(-c3ccc4c(c3)CCO4)nc2n1CC(=O)Nc1cc2ccsc2cc1C` [Example 168, 2-(2-(2,3-dihydrobenzofuran-5-yl)-5-ethyl-6-(4-(5-hydroxy-6-methylpyrimidine-4-carbonyl)piperazin-1-yl)-7-oxo-[1,2,4]triazolo[1,5-a]pyrimidin-4(7H)-yl)-N-(6-methylbenzo[b]thiophen-5-yl)ac etamide], the IC50 was 1 to 100 nM.
In the case of `CCc1c(N2CCN(C(=O)c3ncnc(C)c3O)CC2)c(=O)n2nc(-c3ccc4nc(N5CCOCC5)sc4c3)nc2n1CC(=O)Nc1ccc(C(F)(F)F)cc1Cl` [Example 171, N-(2-chloro-4-(trifluoromethyl)phenyl)-2-(5-ethyl-6-(4-(5-hydroxy-6-methylpyrimidine-4-carbonyl)piperazin-1-yl)-2-(2-morpholinobenzo[d]thiazol-6-yl)-7-oxo-[1,2,4]triazolo[1,5-a]pyrimidin-4(7H)-yl)acetamide], the IC50 lay within 1 to 100 nM.
Turning to `CCc1c(N2CCN(C(=O)c3ncnc(C)c3O)CC2)c(=O)n2nc(C#CC3CC3)nc2n1CC(=O)Nc1ccc(C(F)(F)F)cc1Cl` [Example 173, N-(2-chloro-4-(trifluoromethyl)phenyl)-2-(2-(cyclopropylethynyl)-5-ethyl-6-(4-(5-hydroxy-6-methylpyrimidine-4-carbonyl)piperazin-1-yl)-7-oxo-[1,2,4]triazolo[1,5-a]pyrimidin-4(7H)-yl)acetamide], the IC50 is 1 to 100 nM.
The same measure, in the same setting: the value for `CCc1c(N2CCN(C(=O)c3ncnc(C)c3O)CC2)c(=O)n2nc(C3=CC4CC4C3)nc2n1CC(=O)Nc1ccc(SC(F)(F)F)cc1` (stereo not shown) [Example 177, 2-(2-(bicyclo[3.1.0]hex-2-en-3-yl)-5-ethyl-6-(4-(5-hydroxy-6-methylpyrimidine-4-carbonyl)piperazin-1-yl)-7-oxo-[1,2,4]triazolo[1,5-a]pyrimidin-4(7H)-yl)-N-(4-((trifluoromethyl)thio)phenyl)ac etamide] was 1 to 100 nM; that for `CCc1c(N2CCN(C(=O)c3ncnc(C)c3O)CC2)c(=O)n2nc(-c3cc4c(s3)CCN(CC(F)(F)F)C4)nc2n1CC(=O)Nc1ccc(C(F)(F)F)cc1Cl` [Example 179, N-(2-chloro-4-(trifluoromethyl)phenyl)-2-(5-ethyl-6-(4-(5-hydroxy-6-methylpyrimidine-4-carbonyl)piperazin-1-yl)-7-oxo-2-(5-(2,2,2-trifluoroethyl)-4,5,6,7-tetrahydrothieno[3,2-c]pyridin-2-yl)-[1,2,4]triazolo[1,5-a]pyrimidin-4(7H)-yl)acetamide] was < 1 nM.

By IC50 is commonly meant the concentration needed to halve the response being measured.
